Data reported in patent US10724010B2 (The Regents of the University of California, priority 2013, dated 2020).
Where two headings read alike, the source gives them in different places.

How the values were obtained:
[1] = test system: Azospira suillum strain PS Δcld mutant; conditions: grown aerobically, 40 μM chlorite
Method: (§1) Azospira suillum PS (ATCC BAA-33/DSMZ 13638) was revived from a lab freezer stock and used as the wild-type strain for all genetic manipulations. Various E. coli strains were also used for cloning and conjugation purposes. Prior to all growth curves and genetic manipulations, all strains were streaked out from master freezer stocks to get single colonies.
(§2) E. coli strains were grown in LB media. Kanamycin (Kan, […]) was used for selection and diaminopimelic acid (DAP, 0.3 mM) was used as a supplement to cultivate the auxotrophic strain WM3064. For routine culturing as well as growth assays, wild-type and mutant strains of PS were grown in ALP media. One liter of ALP media is composed of 0.49 g monobasic sodium phosphate dihydrate, 0.97 g dibasic anhydrous sodium phosphate, 0.1 g potassium chloride, 0.25 g ammonium chloride, 0.82 g sodium acetate, 2.0 g yeast extract, 7.6 g of a 60% w/w sodium lactate solution, 1.10 g sodium pyruvate and 10 mL of both vitamin mix and mineral mix. To make solid ALP media for plates, 15 g/L agar was added. Kanamycin was used for selection of PS mutants at a concentration of […]. For anaerobic growth of PS, ALP media was supplemented with either 5 mM sodium nitrate, 2.5 mM sodium perchlorate, or 5 mM of both sodium nitrate and sodium perchlorate.

[2] = test system: Azospira suillum strain PS (wild type); conditions: grown aerobically, 40 μM chlorite
Method: as §1, §2

[3] = test system: Pseudomonas chloritidismutans; conditions: LB, 60 μM chlorite alone, 37° C
Method: (§7) For growth experiments, P. chloritidismutans was grown in LB medium to an OD600 of 0.233 (selected from a dilution series made from an overnight culture). […] Each condition was replicated in six wells of a microtiter plate incubated at 37° C. Optical density (600 nm) was recorded during growth in a plate reader.

[4] = test system: wild-type Caulobacter crescentus NA1000 harboring pJS14; conditions: PYE with 0.3% xylose
Method: (§3) Wild-type Caulobacter crescentus NA1000 (Marks, M. E., et al. (2010) J. Bacteriol. 192:3678-88) was grown in peptone-yeast extract medium (PYE; see Ely, B. (1991) Methods Enzymol. 204:372-84) supplemented with 0.1% (v/v) ferrous sulphate/chelate solution (Sigma # F0518). The plasmid pJS14 is a derivative of the broad-host-range cloning vector pBBR1MCS (Kovach, M. E., et al. (1994) Biotechniques 16:800-2), which confers resistance to chloramphenicol. To express Cld from pJS14, the cld open reading frame from P. chloritidismutans was placed behind a ˜430 base pair NcoI-EcoRI fragment of the xylX promoter from C. crescentus (Meisenzahl, A. C., et al. (1997) J. Bacteriol. 179:592-600). pJS14-xylX::cld or the empty vector pJS14 was transformed into NA1000 with selection using 1 μg/ml chloramphenicol.
(§4) The two strains were grown separately in PYE/chloramphenicol/ferrous sulphate supplemented with 0.3% xylose to induce cld expression. […] Each strain/condition was assayed in six individual wells.

[5] = test system: Caulobacter crescentus NA1000 harboring pJS14-xylX::cld; conditions: PYE with 0.3% xylose
Method: as §3, §4

[6] = test system: Shewanella oneidensis strain MR-1 wild type containing an empty expression vector (strain RAM13); conditions: aerobic
lytic phage particles = conditions: culture medium treated with chlorite at 15 mM; cited from earlier work
[7] = test system: bacteriophage that attacks Pseudomonas chloritidismutans; conditions: LB, 60 μM chlorite plus phage together, 37° C
Method: as §7

[8] = test system: Caulobacter strain KR260 (empty plasmid); conditions: 0.5 mM chlorite, 1:1 co-culture with KR3557, 30° C
Method: (§5) Caulobacter crescentus NA 1000 harboring either pJS71 (KR260) or pJS14-xylX::cld (KR3557) were grown in PYE medium supplemented with 0.1% ferrous sulphate/chelate (Sigma # F0518) and 0.3% xylose to induce cld expression. pJS71 is a derivative of the broad-host-range plasmid pBBR1MCS (Kovach, M. E., et al. (1994) Biotechniques 16:800-2), which confers resistance to spectinomycin. […] Samples were withdrawn from each co-culture at the indicated times, diluted, and plated on PYE medium supplemented with 1 μg/ml chloramphenicol or with 100 μg/ml spectinomycin to enumerate survivors of each species.
(§6) Rather, both strains were co-cultured in PYE medium without selection, samples were taken, and the number of surviving colonies that were resistant to spectinomycin (KR260) or chloramphenicol (KR3557) were counted at the indicated times (FIG. 8).

[9] = test system: Caulobacter strain KR3557 (chlorite dismutase expression plasmid); conditions: 0.5 mM chlorite, 1:1 co-culture with KR260, 30° C
Method: as §5, §6

[10] = test system: Shewanella oneidensis strain MR-1 engineered strain (ICC38); conditions: aerobic

chlorite
growth of the Δcld mutant [1]: no growth is observed | growth of the wild type strain [2]: unimpaired | growth of P. chloritidismutans [3]: did not hinder the growth | growth of wild-type Caulobacter (pJS14) ([4]; 1 mM chlorite): completely blocked | growth of wild-type Caulobacter (pJS14) ([4]; 4 mM chlorite): completely blocked | growth of Caulobacter expressing chlorite dismutase versus control medium lacking chlorite ([5]; 1 mM chlorite): growing at the same rate | growth of Caulobacter expressing chlorite dismutase versus control medium lacking chlorite ([5]; 4 mM chlorite): growing at the same rate | growth of the wild type strain (RAM13) ([6]; 250 μM chlorite): significant reduction in the growth rate | growth of the wild type strain (RAM13) ([6]; 1000 μM chlorite): completely inhibited | reduction in lytic phage particles (lytic phage particles): greater than 99% | growth of P. chloritidismutans with live phage [7]: wild-type growth rate | growth of KR260 in co-culture [8]: completely blocked | growth of KR3557 in co-culture [9]: slightly reduced rate | growth of the recombinantly engineered strain (ICC38) ([10]; 250 μM chlorite): unimpaired | growth of the recombinantly engineered strain (ICC38) ([10]; 1000 μM chlorite): minimal growth impairment
